# Results: US20220144812A1, “QUINOLINE DERIVATIVES AND THEIR USE FOR THE TREATMENT OF CANCER” (Epizyme, Inc., priority 2019, published 2022)
# Like-named read-outs stand apart in the source and are kept apart here.
# Key:
# CREBBP (1084-1701) = target: T1, CREBBP (1084-1701) (Homo sapiens, UniProt Q92793); assay: Biochemical assay for CREBBP (1084-1701), SAMDI; settings: SAMDI, read-out: CREBBP Biochemistry IC50
# T1 construct: measured in the following biochemical assay using CREBBP (1084-1701); purchased
# T1 sequence (Q92793 1084-1701): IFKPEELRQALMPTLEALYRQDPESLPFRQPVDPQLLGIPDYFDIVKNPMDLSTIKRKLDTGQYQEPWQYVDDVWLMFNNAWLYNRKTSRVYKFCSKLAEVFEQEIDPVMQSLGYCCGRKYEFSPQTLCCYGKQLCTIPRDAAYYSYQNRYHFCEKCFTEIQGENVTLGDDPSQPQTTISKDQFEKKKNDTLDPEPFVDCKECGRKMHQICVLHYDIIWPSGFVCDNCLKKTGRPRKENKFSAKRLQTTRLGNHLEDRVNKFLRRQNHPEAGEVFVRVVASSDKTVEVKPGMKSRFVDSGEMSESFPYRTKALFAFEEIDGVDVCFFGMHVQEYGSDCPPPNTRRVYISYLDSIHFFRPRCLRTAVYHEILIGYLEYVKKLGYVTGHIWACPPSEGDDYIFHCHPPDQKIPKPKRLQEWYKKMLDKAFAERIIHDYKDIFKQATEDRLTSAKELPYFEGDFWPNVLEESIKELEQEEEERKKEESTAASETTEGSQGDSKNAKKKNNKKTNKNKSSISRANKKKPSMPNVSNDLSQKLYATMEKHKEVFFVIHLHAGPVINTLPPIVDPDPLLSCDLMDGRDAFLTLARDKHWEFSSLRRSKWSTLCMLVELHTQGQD
# From the text: The following example describes materials and methods relating to a biochemical assay for CREBBP (1084-1701). IC50 values (micromolar (μM)) are summarized in Table 1, Table 2, and Table 3 under the column labeled: “CREBBP Biochemistry IC50 (micromolar).”
# MATERIALS: Reagents 1M Tris pH 8.0, Tween 20 10%, DTT, bovine serum gelatin (BSG) 2%, Peptide #233 (biotin-H3 11-25, K14R, K23R), Acetyl-CoA, CREBBP (1084-1701), formic acid (100%), and sodium bicarbonate were commercially available.
# METHODS: The effect of compounds was measured in the following biochemical assay using CREBBP (1084-1701). Enzyme mix 30 μL per well was added using a Multi-drop to wells of prepared Compound Stock plate. The enzyme was incubated in the Compound Stock plate for 30 minutes at room temperature. Substrate mix, 20 μL per well, was added to Compound Stock plate using a Multi-drop. The plate was covered and incubate 30 minutes at room temperature. The reaction was stopped with addition of 5 μL per well of 5% formic acid using a Multi-drop. The plate was Incubated for 30 minutes at room temperature. The reaction mixture was neutralized with addition of 5 μL per well of 10% sodium bicarbonate using a Multi-drop. The plate was Incubated for 35 minutes at room temperature. The reaction mixture was Transferred 2.5 μL per well to a SAMDI biochip. The plate was Incubated for 60 minutes at room temperature. The samples were washed, dried, and matrix applied to SAMDI biochip. The SAMDI biochip was then read on the mass spectrometer.
# [1] = system: H3K18Ac in HB-CLS-2 cells; assay: H3K18AC in-cell western (ICW) assay; type: cell-based; settings: H3K18Ac in-cell western, read-out: CREBBP ICW IC50
# From the text: The following example describes methods and materials relating to an H3K18AC in-cell western assay. IC50 values (micromolar (μM)) are summarized in Table 1, Table 2, and Table 3 under the column labeled: “CREBBP ICW IC50 (micromolar).”
# MATERIALS: HB-CLS-2 cell line, DMEM: Ham's F12 medium (1:1 mixture), penicillin-streptomycin, heat inactivated fetal bovine serum, D-PBS, Odyssey blocking buffer, 800CW goat anti-rabbit IgG (H+L) antibody, Licor Odyssey CLx Infrared Scanner, H3K18Ac rabbit monoclonal antibody. DRAQS fluorescent probe solution (5 mM), and 100% methanol were commercially available. HB-CLS-2 adherent cells were maintained in complete growth medium (DMEM: Ham's F12 supplemented with 10% v/v heat inactivated fetal bovine serum) and cultured at 37° C. under 5% CO2.
# METHOD: Cell Treatment, ICW for detection of H3K18Ac and DNA content. HB-CLS-2 cells were seeded in assay medium (DMEM: Ham's F12 supplemented with 10% v/v heat inactivated fetal bovine serum and 1% Penicillin/Streptomycin) at a concentration of 80,000 cells per mL in a Poly-D-Lysine coated 384-well culture plates at 50 μL per well. Plates were incubated at room temperature for 30 minutes and then incubated at 37° C., 5% CO2 for additional 16-24 hours. Compounds and DMSO normalization were then added directly to the plates using a D300 Digital Dispenser and returned to the incubator at 37° C., 5% CO2 for 2 hrs. After the incubation, the contents of the plates were discarded into the appropriate waste stream and blotted on laboratory tissue to remove residual liquid. 90 μL per well of 100% ice cold methanol was added to the plates and incubated at room temperature for 15 minutes. Then methanol was then discarded into the appropriate waste stream and the plates again blotted on laboratory tissue to remove residual liquid. Plates were transferred to a Biotek 405 plate washer and washed 3 times with 100 μL per well of wash buffer (1X PBS containing 0.1% Triton X-100 (v/v)). Next, 50 μL per well of Odyssey blocking buffer with 0.1% Tween 20 (v/v) was added to each plate and incubated for 1 hour at room temperature. Blocking buffer was removed and 20 μL of primary antibody were added (α-H3K18Ac diluted 1:800 in Odyssey buffer with 0.1% Tween 20 (v/v)) and plates were incubated overnight (16 hours) at 4° C. Plates were washed 5 times with 100 μL per well of wash buffer. Next 20 μL per well of secondary antibody was added (1:400 800CW goat anti-rabbit IgG (H+L) antibody, 1:2000 DRAQ5 in Odyssey buffer with 0.1% Tween 20 (v/v)) and incubated for 1 hour at room temperature. The plates were washed 3 times with 100 μL per well wash buffer then 3 times with 100 μL per well of water. Plates were allowed to dry at room temperature then imaged on the Licor Odyssey CLx machine which measured integrated intensity at 700 nm and 800 nm wavelengths. Both 700 and 800 channels were scanned.
IC50 (CREBBP (1084-1701)),IC50 ([1]; HB-CLS-2 cells),IC50 [1],Compound
0.4 µM,1 µM,–,CCn1ncc(CN(C)C(=O)c2nc(-c3ccccc3Cl)nc3cc(C)c(Cl)cc23)c1C [Compound 359]
0.71 µM,1.2 µM,–,CCn1ncc(CN(C)C(=O)c2nc(-c3ccccc3C)nc3ccc(Cl)cc23)c1C [Compound 362]
3.9 µM,–,6.1 µM,CCn1ncc(CN(C)C(=O)c2cc(-c3ccccc3)nc3ccc(Cl)cc23)c1C [Compound 140]
5.5 µM,11 µM,–,CCn1ncc(CN(C)C(=O)c2nc(-c3ccc(C)cc3)nc3ccc(Cl)cc23)c1C [Compound 282]
0.69 µM,1.2 µM,–,CCc1ncc(CN(C)C(=O)c2cc(-c3ccccc3Cl)nc3ccc(Cl)cc23)n1C [Compound 336]
2.3 µM,4.5 µM,–,CCn1ncc(CN(C)C(=O)c2nc(-c3ccc(OC)cc3)nc3ccc(Cl)cc23)c1C [Compound 373]
0.53 µM,5.6 µM,–,CCN(Cc1cnn(CC)c1C)C(=O)c1nc(-c2cccc(Cl)c2)nc2ccc(Cl)cc12 [Compound 347]
0.4 µM,–,2 µM,CCn1ncc(CN(C)C(=O)c2cc(-c3ccccc3OC)nc3ccc(Cl)cc23)c1C [Compound 98]
96 µM,20 µM,–,CCn1ncc(CN(C)C(=O)c2nc(Cc3ccccc3)nc3ccc(Cl)cc23)c1C [Compound 225]
4.2 µM,2.7 µM,–,Cc1c(CN(C)C(=O)c2nc(-c3ccccc3Cl)nc3ccc(Cl)cc23)cnn1C1CC1 [Compound 285]
16 µM,13 µM,–,CCn1ncc(CN(C)C(=O)c2nc(-c3cn[nH]c3)nc3ccc(Cl)cc23)c1C [Compound 358]
9 µM,17 µM,–,CCn1ncc(CN(C)C(=O)c2cc(-c3cccc(Cl)c3)nc3ccc(NC)cc23)c1C [Compound 330]
0.63 µM,6.4 µM,–,CCn1ncc(CN(C)C(=O)c2cc(-c3ccccc3Cl)nc3c(C)cc(Cl)cc23)c1C [Compound 350]
0.072 µM,0.58 µM,–,CCc1ccc2nc(-c3ccccc3Cl)nc(C(=O)N(C)Cc3cnn(CC)c3C)c2c1 [Compound 312]
2.5 µM,8.9 µM,–,CCN(Cc1cnn(CC)c1C)C(=O)c1cc(-c2ccccc2Cl)nc2ccc(Cl)cc12 [Compound 302]
0.98 µM,–,4.3 µM,CCn1ncc(CN(C)C(=O)c2cc(-c3cccc(Cl)c3)nc3ccc(C)cc23)c1C [Compound 126]
0.53 µM,1.5 µM,–,CCn1ncc(CN(C)C(=O)c2nc(-c3ccccc3F)nc3ccc(Cl)cc23)c1C [Compound 335]
0.63 µM,2.3 µM,–,Cc1c(CN(C)C(=O)c2nc(-c3ccccc3Cl)nc3ccc(Cl)cc23)cnn1CC(F)(F)F [Compound 337]
0.00089 µM,0.67 µM,–,CCn1ncc(CN(C)C(=O)c2nc(-c3cccc(Br)c3)nc3ccc(Cl)cc23)c1C [Compound 283]
0.4 µM,1.9 µM,–,CCc1noc(CN(C)C(=O)c2nc(-c3ccccc3Cl)nc3ccc(Cl)cc23)c1C [Compound 356]
0.47 µM,–,1.9 µM,CCn1ncc(CN(C)C(=O)c2cc(-c3ccccc3Cl)nc3cc(Cl)c(Cl)cc23)c1C [Compound 97]
0.23 µM,1.5 µM,–,CCn1ncc(CN(C)C(=O)c2nc(-c3cccc(C)c3)nc3ccc(Cl)cc23)c1C [Compound 317]
0.082 µM,0.76 µM,–,Cc1c(CN(C)C(=O)c2nc(-c3ccccc3Cl)nc3ccc(Cl)cc23)cnn1C(C)C [Compound 279]
9.2 µM,18 µM,–,CCc1ccc(-c2nc(C(=O)N(C)Cc3cnn(CC)c3C)c3cc(Cl)ccc3n2)cc1 [Compound 374]
0.83 µM,1.3 µM,–,CCn1ncc(CN(C)C(=O)c2nc(-c3ccccc3OC)nc3ccc(Cl)cc23)c1C [Compound 281]
96 µM,20 µM,–,CCn1ncc(CN(C)C(=O)c2nc(-c3cnn(CCCO)c3)nc3ccc(Cl)cc23)c1C [Compound 212]
